Laboratory results: patent US20210093531A1, “DERIVATIVES OF MENTHOL AND USES THEREOF” (Board of Trustees of Northern Illinois University, priority 2019, published 2021)
Entries after “also recorded” stand apart in the source; their conditions may differ. Marks after values point to notes of the source that are not given here.

Key:
Assay type in all cases: in vivo
[1] = organoleptic evaluation in ethanol, propylene glycol and water; conditions: for organoleptic properties, EtOH / organoleptic properties, PG / organoleptic properties (entry names no solvent): 100 ppm; for organoleptic properties, EtOH: ethanol cut in aqueous solution; for organoleptic properties, PG: propylene glycol cut in aqueous solution; for organoleptic properties (entry names no solvent): entry without solvent suffix
Description: Stock solutions for each solution was prepared as described below to afinal concentration of 100 ppm.
c. Mix well to achieve final concentration of 100 ppm.
a. Prepare a stock solution of 2.5% solution in PG by adding 25 mg of menthol analog in 1 gram of PG (mix well).
Organoleptic properties by compound are listed below for menthol derivatives in ethanol, propylene glycol, and water: […]

trained panelists [2] = assay: time-intensity analysis of cooling, mouthwash application; conditions: for Iext (cooling intensity at end of evaluation): 15 minutes after expectoration
Description: In order to evaluate the potential use of menthol glycinates as […] different food, beverage and oral hygiene products, select compounds were incorporated in different application systems. A beverage model system, a lozenge and a mouthwash application were created, and time-intensity analysis was performed using trained discrimination analysis panelists. Time-Intensity (TI) is a temporal sensory method. During TI evaluations, assessors are asked to score the intensity of perception of a single attribute over consumption of the product. Compared to single point measurements, TI analysis can characterize the onset, decline and rates thereof, of particular sensory characteristics. This analysis may reveal rich information regarding the intensity of an attribute over the time domain and identify temporal perceptual differences among samples that can greatly impact the overall profile of a product. For each sample evaluation, a temporal curve is generated, based on duplication. The temporal curves for each panelist are combined to generate a combined curve for each product that is evaluated. The following distinct parameters were calculated: Imax: peak intensity or maximum observed intensity on the whole curve; […]: time point where the reaction to the stimulus is first perceived on the curve; Tmax: time position of the peak intensity on the curve; Tplateau: protraction of maximum intensity or duration of maximum intensity; Text: time point of extinction of the perception of the stimulus, defined as the position in time after the peak intensity where the measured intensity disappears (or the end of evaluation window); Iext: intensity at time of extinction or end of evaluation; R increase: slope or rate of intensity increase between […] and Tmax; R decrease: slope or rate of intensity decrease between Tmax and Text; and Area: the total area under the time-intensity curve. The formula shown in Table 8 was employed to create a mouthwash product to evaluate […] of interest using time-Intensity analysis. [table] The following test compounds were evaluated: menthol, XI-I-60, RK-2-10, XI-I-65, DK-1-50, and XI-2-73. For time-intensity (T-I) evaluation of the cooling attributes of mouthwash products, 8 panelists were recruited (2 male, 6 female). Panelists were trained in basic taste descriptive analysis. A sweetness reference series (intensity range 2-12) was provided to be used as cross-modality reference to aid in scaling the intensity of the cooling attribute present in the mouthwash samples. Panelists evaluated samples in duplicates and all sample were presented blinded and in a randomized order using a 3-digit code. Panelist evaluated 15 ml of mouthwash at a time and were instructed to rinse for 30 seconds and expectorate. Panelists were instructed to provide cooling intensities before and after expectoration. For the time before expectoration, evaluation started upon introducing the sample and every 10 seconds thereafter. After expectoration, the evaluation continued for 15 minutes and panelists provided cooling intensity ratings at predetermined times. Due to the unique nature of this product and the interest in prolonging the cooling attribute long after consumption, an additional parameter led was evaluated among samples via ANOVA. This parameter is the cooling intensity at time of extinction or in our case the end of evaluation. Data analysis for generation of T-I statistics and ANOVA analysis to determine significant difference among samples was performed using R STUDIO.

trained panelists [3] = assay: time-intensity analysis of cooling, lozenge application; conditions: 4-minute window
Description: In order to evaluate the potential use of menthol glycinates as […] different food, beverage and oral hygiene products, select compounds were incorporated in different application systems. A beverage model system, a lozenge and a mouthwash application were created, and time-intensity analysis was performed using trained discrimination analysis panelists. Time-Intensity (TI) is a temporal sensory method. During TI evaluations, assessors are asked to score the intensity of perception of a single attribute over consumption of the product. Compared to single point measurements, TI analysis can characterize the onset, decline and rates thereof, of particular sensory characteristics. This analysis may reveal rich information regarding the intensity of an attribute over the time domain and identify temporal perceptual differences among samples that can greatly impact the overall profile of a product. For each sample evaluation, a temporal curve is generated, based on duplication. The temporal curves for each panelist are combined to generate a combined curve for each product that is evaluated. The following distinct parameters were calculated: Imax: peak intensity or maximum observed intensity on the whole curve; […]: time point where the reaction to the stimulus is first perceived on the curve; Tmax: time position of the peak intensity on the curve; Tplateau: protraction of maximum intensity or duration of maximum intensity; Text: time point of extinction of the perception of the stimulus, defined as the position in time after the peak intensity where the measured intensity disappears (or the end of evaluation window); Iext: intensity at time of extinction or end of evaluation; R increase: slope or rate of intensity increase between […] and Tmax; R decrease: slope or rate of intensity decrease between Tmax and Text; and Area: the total area under the time-intensity curve. The formula detailed in Table 4 was employed to create the lozenge application to evaluate menthol glycinates of interest using time-intensity analysis. [table] For time-intensity (T-I) evaluation of the cooling intensity of lozenges, 9 panelists were recruited (3 male, 6 female). Panelists were trained in basic taste descriptive analysis. A sweetness reference series (intensity range 2-12) was provided to be used as cross-modality reference to aid in scaling the intensity of the cool attribute present in the lozenge samples. Panelists evaluated samples in duplicates and all samples were presented blinded and in a randomized order using a 3-digit code. Panelists were instructed to provide cooling intensity at predetermined time points throughout an evaluation window of 4 minutes. […] Evaluations were performed with at least 4 hours between them to ensure no carry over. Data analysis for generation of T-I statistics and ANOVA analysis to determine significant difference among samples was performed using R STUDIO.

[4] = after expectoration for 15 minutes (Table 9b)
[5] = rinse phase 30 seconds (Table 9a)

Molecule	Iext (cooling intensity at end of evaluation) (trained panelists [2])	AUC (trained panelists [2]; [4])	I max (trained panelists [2]; [4])	Rdec (trained panelists [2]; [4])	Rinc (trained panelists [2]; [4])	Tmax (trained panelists [2]; [4])	Tstart (trained panelists [2]; [4])	AUC (trained panelists [2]; [5])	Imax (trained panelists [2]; [5])	Rdec (trained panelists [2]; [5])	Rinc (trained panelists [2]; [5])	Tstart (trained panelists [2]; [5])	RInc (rate of intensity increase) (trained panelists [3])	Tmax (time of peak intensity) (trained panelists [3])	Tstart (time cooling first perceived) (trained panelists [3])	also measured
CC1CCC(C(C)C)C(O)C1 (centres unmarked) [Menthol, menthol]	1^a	3608.38^a	12.01^a^	−0.03^a	0.00^a	33.53^a	30.00^a	168.97^a	12.56^a	−0.09^a	0.21^a	10.88^a	0.053^b	180.00^b	5.00^b	organoleptic properties of menthol ([1]; simple solutions of PG and water or ethanol): very strong, instantaneous cooling effect; Imax (peak cooling intensity) (trained panelists [3]; 0.05 g test compound per 100 g, 2 g sample, 9 panelists): 11.53^bc^; AUC (total area under time-intensity curve) (trained panelists [3]): 2064.83^b; RDec (rate of intensity decrease) (trained panelists [3]): 0.056^b
CCCCN(CCCC)CC(=O)O[C@@H]1C[C@H](C)CC[C@H]1C(C)C [Product 10, (1R,2S,5R)-2-Isopropyl-5-methylcyclohexyl 2-(dibutylamino)acetate]	0.9^a	4105.91^ac	12.65^ab	−0.01^b		30.00^a	30.00^a	182.05^a	12.82^a		0.18^b	10.91^a		210.00^a		organoleptic properties, EtOH ([1]; listed as RK-2-10): delay onset mild cooling (post 20 seconds) with a; also recorded: slight tingling and sweetness that extended past 1; organoleptic properties, PG ([1]; listed as RK-2-10): Very low intensity of cooling that slowly builds with; also recorded: a skin tingling effect. Could be a good candidate; organoleptic properties (entry names no solvent) ([1]; listed as RK-2-10): exhibited a delayed onset cooling and an upfront; also recorded: bitterness from PG
CC(C)[C@@H]1CC[C@@H](C)C[C@H]1OC(=O)CN(C)C(C)C [Product 16, (1R,2S,5R)-2-Isopropyl-5-methylcyclohexyl 2-(isopropyl(methyl)amino)acetate]	2.33^b	5565.00^b	13.37^ab	−0.01^b	0.03^b	32.73^a	30.00^a	180.91^a	13.09^a	0.00^b	0.23^a	10.00^a		204.71^a	7.85^ac	organoleptic properties, EtOH ([1]; listed as XI-1-50): initial alcohol cooling burn with late onset cooling; also recorded: at 20 seconds and deep cooling at 60 seconds; organoleptic properties, PG ([1]; listed as XI-1-50): initial bitterness from PG cooling at 30 seconds; organoleptic properties (entry names no solvent) ([1]; listed as XI-1-50): slight delay in cooling after 20 seconds with some; also recorded: upfront bitterness coming from PG. Very intense; also recorded: building cooling post 50 seconds
(1R,2S,5R)-2-Isopropyl-5-methylcyclohexyl 2-(isopropylamino)acetate [Product 7]	1.23^a	4344.50^ac	12.33^ab	−0.01^b	0.00^a	36.00^a	30.00^a	170.50^a	12.43^a		0.20^a	11.00^a	0.041^ab	210.00^a		organoleptic properties, EtOH ([1]; listed as XI-1-60): cooling started at 20 seconds with slight alcohol; also recorded: burn, very intense cooling profile from 20 seconds; organoleptic properties, PG ([1]; listed as XI-1-60): Up front cooling at 10 seconds with stronger cooling; also recorded: at 20 seconds, much more intense cooling than XI-
